SMILES strings stand for the structures.

For one test, the target named is T1, human SGLT1 (Homo sapiens, UniProt P13866).
T1 construct: expressed in transfected cells
T1 sequence (P13866 1-664): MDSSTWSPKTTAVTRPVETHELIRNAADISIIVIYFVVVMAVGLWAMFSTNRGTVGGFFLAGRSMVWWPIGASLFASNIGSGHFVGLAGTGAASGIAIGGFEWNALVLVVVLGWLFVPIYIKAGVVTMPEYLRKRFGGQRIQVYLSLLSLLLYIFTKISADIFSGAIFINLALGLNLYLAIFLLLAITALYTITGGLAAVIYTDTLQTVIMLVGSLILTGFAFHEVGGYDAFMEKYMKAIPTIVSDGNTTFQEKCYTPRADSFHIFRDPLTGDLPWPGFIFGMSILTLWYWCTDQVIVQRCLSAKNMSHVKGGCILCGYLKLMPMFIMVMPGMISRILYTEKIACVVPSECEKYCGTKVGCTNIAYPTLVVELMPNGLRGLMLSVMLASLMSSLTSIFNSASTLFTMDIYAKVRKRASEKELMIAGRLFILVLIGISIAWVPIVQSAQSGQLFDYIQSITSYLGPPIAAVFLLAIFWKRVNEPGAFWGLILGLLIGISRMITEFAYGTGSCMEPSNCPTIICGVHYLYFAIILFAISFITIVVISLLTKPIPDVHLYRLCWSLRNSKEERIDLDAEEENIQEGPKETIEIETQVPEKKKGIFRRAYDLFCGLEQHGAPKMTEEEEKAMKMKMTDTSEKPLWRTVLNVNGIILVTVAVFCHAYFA
As to the kind of experiment: SGLT1 in vitro assay: Na-dependent 14C-AMG uptake in CHO-K1 cells stably expressing human SGLT1. Format: cell-based. As to conditions: CHO-K1 cells stably expressing human SGLT1, 14C-AMG uptake; for inhibition at 0.3 µM: read-out: SGLT1 % Inh @ 0.3 μM; for IC50: compounds of formula (I) where R0 is fluoro. The essentials:
(§1)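 Sodium-dependent uptake of 14C-α-methyl-glucopyranoside ([…]) over 2 h at 37°C was counted by scintillation in stable human SGLT2- or SGLT1-CHO-K1 lines pretreated with 10 mM Na-butyrate. Compounds at 0.001–10 μM were preincubated for 10 min in pH 7.4 buffer with 137 mM NaCl; output is %-inhibition or IC50.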

The target of another test is T2, human SGLT2 (Homo sapiens, UniProt P31639).
T2 construct: expressed in transfected cells
T2 sequence (P31639 1-672): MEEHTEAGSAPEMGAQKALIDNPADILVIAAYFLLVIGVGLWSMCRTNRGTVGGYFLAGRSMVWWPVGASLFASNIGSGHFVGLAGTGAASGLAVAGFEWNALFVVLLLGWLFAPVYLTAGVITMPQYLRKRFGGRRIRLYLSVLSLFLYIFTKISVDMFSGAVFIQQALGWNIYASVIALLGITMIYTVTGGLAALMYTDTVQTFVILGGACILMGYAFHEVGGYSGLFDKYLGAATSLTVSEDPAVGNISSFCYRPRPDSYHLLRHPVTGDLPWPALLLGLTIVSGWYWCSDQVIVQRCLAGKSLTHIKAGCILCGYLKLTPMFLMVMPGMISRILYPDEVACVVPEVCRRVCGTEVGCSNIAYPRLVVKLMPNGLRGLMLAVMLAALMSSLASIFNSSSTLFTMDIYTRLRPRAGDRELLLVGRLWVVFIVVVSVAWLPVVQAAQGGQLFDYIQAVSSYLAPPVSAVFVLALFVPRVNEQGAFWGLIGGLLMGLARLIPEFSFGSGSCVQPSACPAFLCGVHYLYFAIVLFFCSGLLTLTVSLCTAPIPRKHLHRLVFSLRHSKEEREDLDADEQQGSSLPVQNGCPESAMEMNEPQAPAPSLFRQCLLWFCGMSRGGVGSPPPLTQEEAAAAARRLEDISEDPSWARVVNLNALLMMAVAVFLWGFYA
As to the kind of experiment: SGLT2 in vitro assay: Na-dependent 14C-AMG uptake in CHO-K1 cells stably expressing human SGLT2. Conditions: CHO-K1 cells stably expressing human SGLT2, 14C-AMG uptake; for inhibition at 0.3 µM: read-out: SGLT2 % Inh @ 0.3 μM; for IC50: compounds of formula (I) where R0 is fluoro. Format: cell-based. The essentials: as §1

Take `CCc1cc(OC)c([C@@H]2O[C@H](CO)C(F)(F)[C@H](O)[C@H]2O)cc1Cc1ccc(OC)cc1` [Compound 89, (2S,3R,4R,6R)-2-[4-ethyl-2-methoxy-5-[(4-methoxyphenyl)methyl]phenyl]-5,5-difluoro-6-(hydroxymethyl)tetrahydropyran-3,4-diol]: on human SGLT1, the inhibition at 0.3 µM was 48.1% and half-maximal inhibition (IC50) was put at 0.636 µM. On human SGLT2, the inhibition at 0.3 µM came out at 87.7% and the IC50 worked out at 0.0047 µM.
As for `COc1ccc(Cc2cc([C@@H]3O[C@H](CO)C(F)(F)[C@H](O)[C@H]3O)c(OC)cc2OC)cc1` [Compound 92], on human SGLT1, the “SGLT1 % Inh @ 0.3 μM” value worked out at 30.2%. In addition, on human SGLT2, the “SGLT2 % Inh @ 0.3 μM” value amounted to 81.9%.
For `COc1c(Cc2ccc3c(c2)CCCO3)cc([C@@H]2O[C@H](CO)C(F)(F)[C@H](O)[C@H]2O)c2c1CCO2` [Compound 93], in that order: 34.5% and 80.4%.
Turning to `CCc1cc(O)c([C@@H]2OC3(CC3)C(F)(F)[C@H](O)[C@H]2O)cc1Cc1ccc2c(c1)OCCO2` [Compound 94], on human SGLT1, the inhibition at 0.3 µM was found to be 73% and the midpoint of inhibition, the IC50, lay at 0.066 µM. At human SGLT2, the inhibition at 0.3 µM stood at 87.8% and the half-maximal inhibitory concentration (IC50) is 0.0164 µM.
On to `Cc1cc(O)c([C@@H]2O[C@H](CO)C(F)(F)[C@H](O)[C@H]2O)cc1Cc1ccc(OC(F)F)cc1` [Compound 96, (2S,3R,4R,6R)-2-[5-[[4-(difluoromethoxy)phenyl]methyl]-2-hydroxy-4-methyl-phenyl]-5,5-difluoro-6-(hydroxymethyl)tetrahydropyran-3,4-diol], for which, at human SGLT1, the inhibition at 0.3 µM stood at 49.1% and 0.318 µM corresponded to half-maximal inhibition (IC50). Besides, on human SGLT2, the inhibition at 0.3 µM is 81.4% and the 50% inhibitory concentration (IC50) came to 0.0048 µM.
Take `Cc1cc(O)c([C@@H]2O[C@H](CO)C(F)(F)[C@H](O)[C@H]2O)cc1Cc1ccc(OC(F)(F)F)cc1` [Compound 99, (2S,3R,4R,6R)-5,5-difluoro-2-(2-hydroxy-4-methyl-5-(4-(trifluoromethoxy)benzyl)phenyl)-6-(hydroxymethyl)-tetrahydro-2H-pyran-3,4-diol]: the figures for the inhibition at 0.3 µM on human SGLT1 and at human SGLT2 were 17.3% and 84.7%, respectively.
For `COc1cc(C)c(Cc2ccc(OC(F)(F)F)cc2)cc1[C@@H]1O[C@H](CO)C(F)(F)[C@H](O)[C@H]1O` [Compound 101], the “SGLT1 % Inh @ 0.3 μM” value at human SGLT1 was 30.3%. In addition, the “SGLT2 % Inh @ 0.3 μM” value on human SGLT2 stood at 77.2%.
As to `Cc1c(Cc2ccc3c(c2)CCCO3)cc([C@@H]2O[C@H](CO)C(F)(F)[C@H](O)[C@H]2O)c2c1CCO2` [Compound 103], the “SGLT1 % Inh @ 0.3 μM” value on human SGLT1 worked out at 26.3%. The “SGLT2 % Inh @ 0.3 μM” value at human SGLT2 was determined as 94.7%.
For `CCc1cc(O)c([C@@H]2O[C@H](CO)C(F)(F)[C@H](O)[C@H]2O)cc1Cc1ccc(OC(F)(F)F)cc1` [Compound 104], in that order: 39.2% and 82.6%.
For `OC[C@H]1O[C@@H](c2cc(Cc3ccc(OC(F)(F)F)cc3)c(Cl)cc2O)[C@H](O)[C@@H](O)C1(F)F` [Compound 105], in that order: 38.9% and 91.8%.
On to `COc1cc(Cl)c(Cc2ccc(OC(F)(F)F)cc2)cc1[C@@H]1O[C@H](CO)C(F)(F)[C@H](O)[C@H]1O` [Compound 106], for which, at human SGLT1, the “SGLT1 % Inh @ 0.3 μM” value is recorded as 29.5%. On human SGLT2, the “SGLT2 % Inh @ 0.3 μM” value is on record as 92.5%.
Consider `COc1ccc(Cc2cc([C@@H]3O[C@H](CO)C(F)(F)[C@H](O)[C@H]3O)c(O)cc2C)cc1` [Compound 108, (2S,3R,4R,6R)-5,5-difluoro-2-[2-hydroxy-5-[(4-methoxyphenyl)methyl]-4-methyl-phenyl]-6-(hydroxymethyl)tetrahydropyran-3,4-diol], for which, at human SGLT1, the inhibition at 0.3 µM was found to be 66.6% and the IC50 came to 0.07 µM. Further, at human SGLT2, the inhibition at 0.3 µM was determined as 94.4% and the IC50 worked out at 0.0016 µM.
On to `CCc1cc(OC)c([C@@H]2O[C@H](CO)C(F)(F)[C@H](O)[C@H]2O)cc1Cc1ccc(OC(F)(F)F)cc1` [Compound 109], for which the “SGLT1 % Inh @ 0.3 μM” value on human SGLT1 is 27.4%. Moreover, at human SGLT2, the “SGLT2 % Inh @ 0.3 μM” value worked out at 70.5%.
On to `Cc1cc(O)c([C@@H]2O[C@H](CO)C(F)(F)[C@H](O)[C@H]2O)cc1Cc1ccc(Cl)s1` [Compound 110], for which, at human SGLT1, the inhibition at 0.3 µM is 75% and the half-maximal inhibitory concentration (IC50) is 0.095 µM. Further, at human SGLT2, the inhibition at 0.3 µM was found to be 82.4% and the IC50 was found to be 0.0057 µM.
`OC[C@H]1O[C@@H](c2cc(Cc3ccc4c(c3)OCC4)c(Cl)cc2O)[C@H](O)[C@@H](O)C1(F)F` [Compound 111, (2S,3R,4R,6R)-2-(4-chloro-5-((2,3-dihydrobenzofuran-6-yl)methyl)-2-hydroxyphenyl)-5,5-difluoro-6-(hydroxymethyl)-tetrahydro-2H-pyran-3,4-diol]: at human SGLT1, the inhibition at 0.3 µM turned out to be 84% and the IC50 was 0.057 µM. Also, on human SGLT2, the inhibition at 0.3 µM is 85.2% and the concentration for half-maximal inhibition (IC50) was found to be 0.0009 µM.
In the case of `COc1cc(C)c(Cc2ccc(Cl)s2)cc1[C@@H]1O[C@H](CO)C(F)(F)[C@H](O)[C@H]1O` [Compound 112], the inhibition at 0.3 µM worked out at 43.5% at human SGLT1 and 81.1% at human SGLT2. In addition, the concentration for half-maximal inhibition (IC50) turned out to be 1.03 µM on human SGLT1 and 0.0045 µM on human SGLT2.
As for `OC[C@H]1O[C@@H](c2cc(Cc3ccc4c(c3)CCO4)c(Cl)c3c2OCC3)[C@H](O)[C@@H](O)C1(F)F` [Compound 114], the “SGLT1 % Inh @ 0.3 μM” value on human SGLT1 was determined as 36.8%. The “SGLT2 % Inh @ 0.3 μM” value on human SGLT2 is given as 80.6%.
Consider `COc1cc(Cl)c(Cc2ccc3c(c2)OCC3)cc1[C@@H]1O[C@H](CO)C(F)(F)[C@H](O)[C@H]1O` [Compound 115], for which the inhibition at 0.3 µM on human SGLT1 was 50.8%; at human SGLT2, 86.8%. Moreover, the values for the concentration for half-maximal inhibition (IC50) on human SGLT1 and on human SGLT2 were 0.326 µM and 0.0005 µM, respectively.
For `OC[C@H]1O[C@@H](c2cc(Cc3ccc(OCF)cc3)c(Cl)cc2O)[C@H](O)[C@@H](O)C1(F)F` [Compound 116, (2S,3R,4R,6R)-2-(4-chloro-5-{[4-(fluoromethoxy)phenyl]methyl}-2-hydroxyphenyl)-5,5-difluoro-6-(hydroxymethyl)oxane-3,4-diol], in that order: 65.2%, 85.5%, 0.122 µM and 0.0045 µM.
With `COc1cc(O)c([C@@H]2O[C@H](CO)C(F)(F)[C@H](O)[C@H]2O)cc1Cc1ccc(OC(F)(F)F)cc1` [Compound 119], the “SGLT1 % Inh @ 0.3 μM” value at human SGLT1 is on record as 24.9%. Moreover, at human SGLT2, the “SGLT2 % Inh @ 0.3 μM” value worked out at 79.0%.
For the compound `COc1cc(OC)c([C@@H]2O[C@H](CO)C(F)(F)[C@H](O)[C@H]2O)cc1Cc1ccc(OC(F)(F)F)cc1` [Compound 121], the “SGLT1 % Inh @ 0.3 μM” value on human SGLT1 was determined as 20.2%. The “SGLT2 % Inh @ 0.3 μM” value on human SGLT2 was found to be 63.6%.
For the compound `COc1cc(C)c(Cc2ccc(C3CC3)cc2)cc1[C@@H]1O[C@H](CO)C(F)(F)[C@H](O)[C@H]1O` [Compound 123], the “SGLT1 % Inh @ 0.3 μM” value on human SGLT1 is given as 30.6%. At human SGLT2, the “SGLT2 % Inh @ 0.3 μM” value was 89.3%.
As for `Cc1cc(O)c([C@@H]2O[C@H](CO)C(F)(F)[C@H](O)[C@H]2O)cc1Cc1ccc(C2CC2)cc1` [Compound 124, (2S,3R,4R,6R)-2-(5-(4-cyclopropylbenzyl)-2-hydroxy-4-methylphenyl)-5,5-difluoro-6-(hydroxymethyl)-tetrahydro-2H-pyran-3,4-diol], on human SGLT1, the inhibition at 0.3 µM was 75.5% and the IC50 was 0.158 µM. Further, at human SGLT2, the inhibition at 0.3 µM was found to be 90.3% and the IC50 stood at 0.001 µM.

For the origin of these results see patent US20210238170A1, “5,5-Difluoro- and 5-Fluoro-5-Methyl-C-Glycoside Derivatives Useful As Dual SGLT1 / SGLT2 Modulators” (Janssen Pharmaceutica NV, priority 2018, published 2021).
